{"source": "patent US20220265657A1", "about": "“ADMINISTRATION METHOD AND DOSAGE REGIMEN FOR TREATMENT OF NEURODEGENERATIVE DISEASES USING TRAMETINIB AND MARKERS” (GENUV INC., priority 2019, published 2022)", "key": {"MEK1/2": {"test_system": "MEK1/2", "experiment": "Western blot of pERKs and ERKs in whole brain lysates of normal mice", "assay_type": "in vivo", "settings": "0.1 mg/kg/day oral", "description": "(§1) Trametinib treatment: Trametinib (Medchemexpress, Monmouth Junction, N.J.) was micronized and suspended in the vehicle containing 5% mannitol, 1.5% hydroxypropyl methylcellulose and 0.2% sodium lauryl sulfate. For pharmacokinetic analysis, 0.05, 0.2 and 0.8 mg/kg of trametinib were orally administered to 7-week-old normal mice (ICR, n=5 per group) as a single administration. […] For studies on the change in pERK expression in normal mice and whole cell RNA sequencing study, 0.1 mg/kg/day of trametinib (in 4% DMSO+96% corn oil) was orally administered to 6-week old C57BL/6 mice (n=3 per group). Mice were sacrificed after 1, 2, 3, or 4 weeks of administration. 5XFAD mice (male, n=7˜10 per group) were divided into vehicle and trametinib treated groups. 12-month old mice received vehicle or 0.1 mg/kg of trametinib for 1 month by oral gavage once a day (These mice are referred to as “13-month old 5XFAD mice” in the Examples). […] Blood was obtained after completion of treatment.\nLysates were centrifuged at 13,000 rpm for 20 min at 4° C., and the protein content in the supernatant was determined using the Bradford assay (Bio-rad, Hercules, Calif.). For subcellular fractionation, cells were lysed with lysis buffer (250 mM Sucrose, 20 mM HEPES, pH 7.4, 10 mM KCl, 1.5 mM MgCl2, 1 mM EGTA, 1 mM EDTA, 1 mM DTT) containing protease inhibitor for 30 min on ice, followed by centrifugation at 720 g for 5 min at 4° C. Supernatants were centrifuged at 15,000 rpm for 10 min at 4° C., and the resulting supernatant was used as the cytosol fraction. After centrifugation at 720 g for 5 min, pellets were washed with lysis buffer and dissolved in nuclear lysis buffer (50 mM Tris HCl, pH 8.0, 150 mM NaCl, 1% NP40, 0.5% sodium deoxycholate, 0.1% SDS, 10% glycerol) as the nuclear fraction. Protein from each sample was subjected to 8%˜15% SDS-PAGE, and the resolved proteins were transferred to nitrocellulose or polyvinylidene fluoride membrane. The membranes were blocked with 5% nonfat milk powder in Tris-buffered saline/Tween 20 (TBST) for 1 h at room temperature, then incubated with anti-phospho-ERK (Cell signaling), anti-ERK (Cell signaling), anti-LAMP1 (Abcam), anti-LC3 (Cell signaling), anti-cathepsin B (Cell signaling), anti-p62 (Cell signaling), anti-p62 (5114, Cell signaling), anti-phospho-mTOR (5536, Cell signaling), anti-mTOR (2983, Cell signaling), anti-phospho-ULK1 (14202, Cell signaling), anti-ULK1 (8054, Cell signaling), anti-TFEB (852501, Biolegend), and anti-GAPDH (Cell signaling) overnight at 4° C. After washing, membranes were incubated with horseradish peroxidase-conjugated goat anti-rabbit IgG antibody (Thermo) or goat anti-rat IgG antibody (Thermo) for 2 h at room temperature. […] The detected signals were quantified using a LAS-4000 system (Fuji Film, Tokyo, Japan)."}, "5XFAD mice [1]": {"test_system": "5XFAD mice", "experiment": "Western blot of brain cortex lysates", "assay_type": "in vivo", "description": "as §1\nLysates were centrifuged at 13,000 rpm for 20 min at 4° C., and the protein content in the supernatant was determined using the Bradford assay (Bio-rad, Hercules, Calif.). For subcellular fractionation, cells were lysed with lysis buffer (250 mM Sucrose, 20 mM HEPES, pH 7.4, 10 mM KCl, 1.5 mM MgCl2, 1 mM EGTA, 1 mM EDTA, 1 mM DTT) containing protease inhibitor for 30 min on ice, followed by centrifugation at 720 g for 5 min at 4° C. Supernatants were centrifuged at 15,000 rpm for 10 min at 4° C., and the resulting supernatant was used as the cytosol fraction. After centrifugation at 720 g for 5 min, pellets were washed with lysis buffer and dissolved in nuclear lysis buffer (50 mM Tris HCl, pH 8.0, 150 mM NaCl, 1% NP40, 0.5% sodium deoxycholate, 0.1% SDS, 10% glycerol) as the nuclear fraction. Protein from each sample was subjected to 8%˜15% SDS-PAGE, and the resolved proteins were transferred to nitrocellulose or polyvinylidene fluoride membrane. […] The detected signals were quantified using a LAS-4000 system (Fuji Film, Tokyo, Japan)."}, "5XFAD mice [2]": {"test_system": "5XFAD mice", "experiment": "Immunofluorescence of active caspase 3, LC3 and LAMP1 in cortex layer V", "assay_type": "in vivo", "settings": "5XFAD mice cortex", "description": "as §1\nBrains were dissected and analyzed by immunohistochemistry. For paraffin sections, brain hemispheres were embedded sagittally in paraffin and prepared into sections of […] slices. […] The sections were counterstained with DAPI. […] NeuN-positive and active caspase 3-positive cells from cortex layer V were counted using Icy micromanager program (Institut Pasteur, Paris, France)."}, "5XFAD mice [3]": {"test_system": "5XFAD mice", "settings": "8-month old 5XFAD mice"}}, "note": "Read-outs that look alike come from different tables or passages of the source."}
{"smiles": "CC(=O)Nc1cccc(-n2c(=O)n(C3CC3)c(=O)c3c(Nc4ccc(I)cc4F)n(C)c(=O)c(C)c32)c1", "note": "[trametinib]", "values": [{"measurement": "decrease of p-ERKs/ERKs ratio compared to vehicle treated group", "setting": "MEK1/2; 1 week administration", "value": 22.5, "unit": "%"}, {"measurement": "decrease of p-ERKs/ERKs ratio compared to vehicle treated group", "setting": "MEK1/2; 2 week administration", "value": 33.7, "unit": "%"}, {"measurement": "decrease of p-ERKs/ERKs ratio compared to vehicle treated group", "setting": "MEK1/2; 3 week administration", "value": 50, "unit": "%"}, {"measurement": "decrease of p-ERKs/ERKs ratio compared to vehicle treated group", "setting": "MEK1/2; 4 week administration", "value": 45.6, "unit": "%"}, {"measurement": "autophagosome marker LC3-II level", "setting": "5XFAD mice [1]; 8-month old 5XFAD mice brain", "value": "further increased"}, {"measurement": "level of mature cathepsin B", "setting": "5XFAD mice [1]; 8-month old 5XFAD mice brain", "value": "seen to increase"}, {"measurement": "expression of presynaptic marker synaptophysin and postsynaptic marker PSD-95", "setting": "5XFAD mice [1]; brain cortex lysates of 5XFAD mice", "value": "Increased expression"}, {"measurement": "LC3-LAMP1 co-stained cells", "setting": "5XFAD mice [2]", "value": "Increased LC3-LAMP1 co-stained cells"}, {"measurement": "apoptosis (active caspase 3)", "setting": "5XFAD mice [2]", "value": "reduced apoptosis"}, {"measurement": "MBP levels", "setting": "5XFAD mice [3]; 0.05 mg/kg/day", "value": "restored back to levels comparable to that of wild type mice"}, {"measurement": "MBP levels", "setting": "5XFAD mice [3]; 0.1 mg/kg/day", "value": "restored back to levels comparable to that of wild type mice"}]}
